In the NIST ThermoML archive (doi:10.1016/j.fluid.2013.11.036) one finds mass density and Normal boiling temperature data, which are given here for two compounds.

The conditions of the series: Liquid; for mass density: 298.15 K, 101.33 kPa, Vibrating tube method; for Normal boiling temperature: Ebulliometric method (Recirculating still).

± gives the expanded uncertainty stated by the source.

One may read the mass density as mass per unit of volume. For `O` [water], the mass density was 997.8 ± 0.2 kg/m3 and the Normal boiling temperature was determined as 100.00 ± 0.2 °C.
With `CC(=O)O` [acetic acid], the mass density is given as 1042.5 ± 0.2 kg/m3 and the Normal boiling temperature was 117.88 ± 0.2 °C.
